Measurements from ChEMBL document CHEMBL1151967, “Cytotoxic biscembranes from the soft coral Sarcophyton glaucum” (J Nat Prod, 2009).

system: HL-60; assay: Cytotoxicity against human HL60 cells; format: functional, cell-based

SMILES	IC50 [µM]
COC(=O)[C@]12CC(=O)/C=C(/C)CC/C=C(\C)C(=O)C[C@@H](C(C)C)C(=O)[C@H]1CC(C)=C1C[C@H](O)[C@](C)(O)[C@H]3CC[C@@](C)(O)[C@H](CC/C(C)=C/[C@@H]12)O3 [BISGLAUCUMLIDE I]	44.1
COC(=O)[C@]12CC(=O)[C@H](C(C)C)CC(=O)/C(C)=C/CC/C(C)=C\C(=O)[C@H]1CC(C)=C1C[C@H](O)[C@](C)(O)[C@H]3CC[C@@](C)(O3)[C@@H](O)CC/C(C)=C/[C@@H]12 [BISGLAUCUMLIDE H]	47.8
COC(=O)[C@]12CC(=O)/C=C(\C)CC/C=C(\C)C(=O)C[C@@H](C(C)C)C(=O)[C@H]1CC(C)=C1C[C@H](OC(C)=O)[C@](C)(O)[C@H]3CC[C@@](C)(O)[C@H](CC/C(C)=C/[C@@H]12)O3 [BISGLAUCUMLIDE K]	29.8
COC(=O)[C@]12CC(=O)[C@H](C(C)C)CC(=O)/C(C)=C/CC/C(C)=C/C(=O)[C@H]1CC(C)=C1C[C@H](O)[C@](C)(O)[C@H]3CC[C@](C)(O3)[C@@H](O)CC/C(C)=C/[C@@H]12 [BISGLAUCUMLIDE G]	58
COC(=O)[C@]12CC(=O)[C@H](C(C)C)CC(=O)/C(C)=C/CC/C(C)=C\C(=O)[C@H]1CC(C)=C1C[C@H](O)[C@](C)(O)[C@H]3CC[C@@](C)(O)[C@H](CC/C(C)=C/[C@@H]12)O3 [BISGLAUCUMLIDE E]	41
COC(=O)[C@]12CC(=O)[C@H](C(C)C)CC(=O)/C(C)=C\CC/C(C)=C/C(=O)[C@H]1CC(C)=C1C[C@H](OC(C)=O)[C@](C)(O)[C@H]3CC[C@@](C)(O)[C@H](CC/C(C)=C/[C@@H]12)O3 [BISGLAUCUMLIDE F]	13.3
